The values below come from US5889002A, “Fused 1,2,4-thiadiazine and fused 1,4-thiazine derivatives, their preparation and use” (Novo Nordisk A/S, priority 1996, dated 1999).

The test system of one assay is rat aorta rings. The assay is described as follows: Relaxation of rat aorta rings. Particulars: rat thoracic aorta rings, phenylephrine-contracted to 80% of maximum response; cumulative addition; read-out: EC50 (concentration required to evoke a 50% relaxation of the tissue). On the procedure:
The activity of the compounds as potassium channel openers can also be measured as relaxation of rat aortas rings according to the following procedure:
A section of rat thoracic aorta between the aortic arch and the diaphragm was dissected out and mounted as ring preparations as described by Taylor P. D. et al, Brit J. Pharmacol, 111, 42-48 (1994).
After a 45 min. equilibration period under a tension of 2 g, the preparations were contracted to achieve 80% of the maximum response using the required concentration of phenylephrine. When the phenylephrine response reached a plateau, potential vasodilatory agents were added cumulatively to the bath in small volumes using half log molar increments at 2 min intervals. Relaxation was expressed at the percentage of the contracted tension. The potency of a compound was expressed as the concentration required to evoke a 50% relaxation of the tissue.
Relaxation of rat aorta rings

The next assay has as its system RIN 5F cell line. The assay is described as follows: 86Rb+ efflux from a β-cell line (Rb-efflux in rin 5F cells). In kind it is cell-based. Particulars: 1 h at room temperature, Ringer buffer pH 7.1, four parameter logistic curve, read-out: EC50, inhibition of Rb-efflux. On the procedure:
^86 Rb^+ efflux from a β-cell line
The RIN 5F cell line was grown in RPMI 1640 with Glutamax I, supplemented with 10% fetal calf serum (from GibcoBRL, Scotland, UK) and maintained in an atmosphere of 5% CO2 /95% air at 37° C. The cells were detached with a Trypsin-EDTA solution (from GibcoBRL, Scotland, UK), resuspended in medium, added 1 mCi/ml ^86 Rb^+ and replated into microtiter plates (96 well cluster 3596, sterile, from Costar Corporation,Massachusetts, U.S.A.) at a density of 50000 cells/well in […], and grown 24 hours before use in assay.
The plates were washed 4 times with Ringer buffer (150 mM NaCl, 10 mM Hepes, 3.0 mM KCl, 1.0 mM CaCl2, 20 mM Sucrose, pH 7.1). Eighty μl Ringer buffer and 1 μl control- or test compound dissolved in DMSO was added. After incubation 1 h at room temperature with a lid, 50 μl of the supernatant was transferred to PicoPlates (Packard Instrument Company, Connecticut, U.S.A.) and 100 μl MicroScint40 (Packard Instrument Company, Connecticut, U.S.A.) added. The plates were counted in TopCount (Packard Instrument Company, Connecticut, U.S.A.) for 1 min/well at the ^32 P program. […]

As for `CCNC1=NS(=O)(=O)c2sc(Cl)cc2N1` [Compound 2, 6-Chloro-3-ethylamino-4H-thieno[3,2-e]-1,2,4-thiadiazine 1,1-dioxide], the EC50 with rat aorta rings came out at 15 µM. Take `C[C@H](CO)NC1=NS(=O)(=O)c2sc(Cl)cc2N1` [Compound 16, (R)-6-Chloro-3-(2-hydroxy-1-methylethyl)amino-4H-thieno[3,2-e]-1,2,4-thiadiazine 1,1-dioxide]: the EC50 was 6.1 µM in the assay on rat aorta rings and 5.9 µM in the assay with RIN 5F cell line. As to `CC(C)C(C)NC1=NS(=O)(=O)c2sc(Cl)cc2N1` (centres unmarked) [Compound 1, 6-Chloro-3-(1,2-dimethylpropyl)amino-4H-thieno[3,2-e]-1,2,4-thiadiazine 1,1-dioxide], the EC50 in the assay on rat aorta rings was 1.2 µM; in the assay on RIN 5F cell line it was 2.7 µM.
